≈ marks a conversion by molar mass, not a printed value. Each block holds one compound with its values, some of them ahead of it. Calls of active or inactive are those of the source. The calls are words filed in the database; no cut-off is given here.
Columns and labels:
MRC5 = assay: Cytotoxicity against human MRC5 cells after 72 hrs by MTT assay; type: cell-based; settings: MRC5, 72 h
A549 [1] = assay: Cytotoxicity against human A549 cells assessed as growth inhibition after 72 hrs by MTT assay; type: functional, cell-based; settings: A549, 72 h
HepG2 = assay: Cytotoxicity against human HepG2 cells assessed as growth inhibition after 72 hrs by MTT assay; type: functional, cell-based; settings: HepG2, 72 h
HCT-116 = assay: Cytotoxicity against human HCT116 cells assessed as growth inhibition after 72 hrs by MTT assay; type: functional, cell-based; settings: HCT-116, 72 h
[2] = Intrinsic solubility of the compound; type: physicochemical; settings: read-out: Intrinsic_solubility
[3] = Permeability of the compound at pH 7.4; type: physicochemical; settings: not told, read-out: permeability
A549 [4] = assay: Antitumor activity in human A549 cells xenografted in athymic nude mouse assessed as tumor growth inhibition at 5 mg/kg, ip administered every other day for 21 days; type: functional; settings: 504 h, read-out: TGI
Mus musculus = assay: Toxicity in human A549 cells xenografted athymic nude mouse assessed as body weight loss at 5 mg/kg, ip administered every other day for 21 days; type: organism-based; settings: in vivo, 504 h
A549 [5] = assay: Induction of apoptosis in human A549 cells assessed as nuclei condensation after 24 hrs by DAPI staining based immunofluorescence microscopic analysis; type: functional, cell-based
[6] = Lipophilicity, log D of compound at pH 7.4; type: physicochemical; settings: buffer

Compound: COc1ccc2c(O)c(/C=C/C(=O)N3CCC=CC3=O)c(=O)oc2c1
IC50 (MRC5): 31 µM | IC50 (A549 [1]): 11 µM | IC50 (HepG2): 12 µM | IC50 (HCT-116): 18 µM

solubility [2]: 0.316 mg/mL (≈ 787 µM) | Papp [3]: 202 nm/s
Compound: COc1cc2c(O)c(/C=C/C(=O)N3CCC=CC3=O)c(=O)oc2c(OC)c1OC
IC50 (MRC5): 57 µM | IC50 (A549 [1]): 4.2 µM | inhibition in vivo at 5 mg/kg (A549 [4]): 48.5% | Activity (Mus musculus): Non-Toxic | Activity (A549 [5]): Active | IC50 (HepG2): 5.7 µM | IC50 (HCT-116): 3.2 µM

Papp [3]: 1170 nm/s
Compound: CC(C)NCC(O)COc1cccc2ccccc12 (configuration not stated) [PROPRANOLOL]

Compound: Cc1cc2oc(=O)c(/C=C/C(=O)N3CCC=CC3=O)c(O)c2cc1C
IC50 (MRC5): 35 µM | IC50 (A549 [1]): 15 µM | IC50 (HepG2): 7.8 µM | IC50 (HCT-116): 5.1 µM

Compound: O=C1C=CCCN1C(=O)/C=C/c1c(O)c2ccc(Cl)cc2oc1=O
IC50 (MRC5): 19 µM | IC50 (A549 [1]): 6.5 µM | IC50 (HepG2): 15 µM | IC50 (HCT-116): 12 µM

Compound: O=C1C=CCCN1C(=O)/C=C/c1c(O)c2ccccc2oc1=O
IC50 (MRC5): 22 µM | IC50 (A549 [1]): 12 µM | IC50 (HepG2): 6.7 µM | IC50 (HCT-116): 15 µM

Compound: COc1ccc2oc(=O)c(/C=C/C(=O)N3CCC=CC3=O)c(O)c2c1
IC50 (MRC5): 53 µM | IC50 (A549 [1]): 9.8 µM | IC50 (HepG2): 7.1 µM | IC50 (HCT-116): 10 µM

Compound: O=C1C=CCCN1C(=O)/C=C/c1c(O)c2ccc(F)cc2oc1=O
IC50 (MRC5): 8.9 µM | IC50 (A549 [1]): 18 µM | IC50 (HepG2): 9.7 µM | IC50 (HCT-116): 11 µM

Compound: O=C1CCCCN1C(=O)CCc1c(O)c2ccccc2oc1=O
IC50 (MRC5): 58 µM | IC50 (A549 [1]): > 90 µM | IC50 (HepG2): > 90 µM | IC50 (HCT-116): > 90 µM

Papp [3]: 19.8 nm/s
Compound: CC(C(=O)O)c1cccc(C(=O)c2ccccc2)c1 (configuration not stated) [KETOPROFEN]

solubility [2]: 0.00075 mg/mL (≈ 2.36 µM) | Papp [3]: 246 nm/s | logD [6]: 2.84
Compound: COc1cc(/C=C/C(=O)N2CCC=CC2=O)cc(OC)c1OC [PIPLARTINE]
IC50 (MRC5): 37 µM | IC50 (A549 [1]): 10 µM | inhibition in vivo at 5 mg/kg (A549 [4]): 41.2% | IC50 (HepG2): 8.9 µM | IC50 (HCT-116): 9.2 µM

— ChEMBL document CHEMBL3994639, “Identification of novel ROS inducer by merging the fragments of piperlongumine and dicoumarol” (Bioorg Med Chem Lett, 2017)
